Assays:
Assay type in all cases: in vivo, mouse
ob/ob mice [1] = experiment: Subcutaneous micro-osmotic pump infusion of human CRP and human leptin in ob/ob mice; conditions: for effect of CRP alone on food intake and body weight: CRP without leptin
Method: Micro-osmotic pumps (#1007D, DURECT, Cupertino, Calif.) were subcutaneously implanted into ob/ob or wild-type mice according to the instructions of the manufacturer. The osmotic pumps were pre-filled with saline, CRP, leptin or leptin plus CRP. Food intake (24-hour), body weight, and body temperature were monitored daily post-surgery. Blood glucose concentrations were measured using tail-vein blood samples using a Precision Plus® glucose meter, product of Medisense (Abbot Park, Ill.).
Human- and mouse-leptin concentrations were measured using ELISA kits from CHEMICON (Temecular, Calif.) and R&D Systems (Minneapolis, Minn.), respectively, accordingly to the instructions of the manufacturers. Serum mouse insulin and human CRP were determined with ELISA kits from LINCO Research (St. Charles, Mo.) and HELICA (Fullerton, Calif.), respectively. Serum- and tissue-triglycerides were determined with the protocols described previously (19).
Various amounts of human CRP, either alone or with human leptin, were administered via micro-osmotic pumps implanted s.c. into 8-week old ob/ob mice.
The above in vivo data were harvested from mice experiencing infusions of a mixture of CRP and leptin stored in a single mini-osmotic pump. Human CRP and leptin were also infused in separate osmotic pumps. […] Also compared to infusion from a single pump, detectable effects of human CRP on leptin were realized later, likely due to the time required to achieve diffusion and binding equilibrium.

CRP-transgenic mice = experiment: Human leptin infusion in mice transgenically expressing human CRP and wild-type littermates
Method: To complement the in vivo studies further, the satiety and weight-reducing functions of human leptin were evaluated in mice producing transgenically expressed human CRP (24). The average baseline serum concentration of human CRP in these mice was approximately 15 μg/ml. […] To evaluate the effects of human leptin in the transgenic mice, a dose of 0.6 mg/kg/day, which has been known to maximally but only temporarily affected energy balance in wild-type mice (25), was infused. […] At the end of infusion, the total human leptin concentration in the sera of transgenic mice averaged at 7.6 ng/ml, which was higher than that in the wild-type littermates at 3.2 ng/ml.

ob/ob mice [2] = experiment: Intracerebralventricular (i.c.v.) injection of human CRP and leptin in ob/ob mice, food intake and body weight
Method: Male C57BL/6J ob/ob mice used in this study were obtained from the Jackson Laboratory, Bar Harbor. Mice (7-8 weeks of age) were fed standard chow and water ad libitum, housed in individual cages under controlled temperature at 22° C. and a 12-hour light-dark cycle with light from 0700 to 1900 h. Food intake and body weight were measured daily throughout the study. All experimental procedures were performed according to protocols approved by the Institutional Animal Care and Use Committee at the University of Pittsburgh. Cannulas were surgically implanted into the lateral ventricles of male ob/ob mice. Specifically, the mice were intraperitoneally anesthetized with 250 mg/Kg Avertin (Sigma-Aldrich). A plastic cannula was inserted into lateral cerebral ventricle: −0.7 mm relative to bregma, 1.3 mm lateral of midline, and 2 mm down to the calvarium. The exteriorized cannula was secured on the skull with original Super Glue. To prevent the cannula from becoming blocked by blood clots, a 28-gauge stainless syringe pinhead was inserted into each cannula. The animals were allowed to recover for 1 week after surgery until the food-intake reaches at least 90% of the pre-operative level. All agents were injected slowly with a volume of 1 μl using a 5 μl syringe (Hamilton, Reno, Nev.). For instance, human CRP was injected at a lower concentration of 1.2 μg per animal and a higher concentration of 2.3 μg per animal into the lateral ventricles. The i.c.v injection of human CRP was followed 24 hours later by injection of human leptin at a sub-maximal dose of 100 ng/animal. In a parallel experiment, human leptin was also injected via i.c.v. following a pre-injection of PBS. In each injection scheme, food was returned to the animals 1 hour after the injection, and the amount of food-intake and body weight were measured 24 hours later. All paired comparisons were subject to a two-tailed Student t-test with P<0.05 considered statistically significant. Additionally, human leptin was injected via i.c.v. for an extended period of two days subsequent to a pre-injection of human CRP with a dosage of 2.3 μg/injection. In a parallel experimental scheme, daily injection of human leptin was performed for two consecutive days subsequent to a pre-injection of PBS.

[3] = human leptin 100 ng/animal i.c.v. after PBS pre-injection, 24 hours

Q: What does the source list for human leptin: human recombinant leptin?
A: total human leptin concentrations in the sera (ob/ob mice [1]; all groups infused with leptin (leptin only or leptin plus CRP), separate osmotic pumps): 15 to 20 ng/mL; effect of leptin on diabetes (blood glucose, plasma insulin, serum- and hepatic triglyceride) (ob/ob mice [1]; ob/ob mice): alleviated diabetes; effect of human leptin on food-intake and body weight (ob/ob mice [1]; ob/ob mice, 0.3 mg/kg/day s.c. infusion, 6 days): expected reduction in food-intake and body weight; physiological effects of human leptin in CRP-transgenic mice (CRP-transgenic mice; 0.6 mg/kg/day infusion, CRP-transgenic mice): completely blunted; effect of human leptin on food intake, body weight, epidydimal fat-pad weight in wild-type littermates (CRP-transgenic mice; 0.6 mg/kg/day infusion, wild-type littermates): expected reductions in food intake, body weight, and epidydimal fat-pad weight; total human leptin concentration in sera, transgenic mice (CRP-transgenic mice; end of infusion, CRP transgenic mice): 7.6 ng/mL; total human leptin concentration in sera, wild-type littermates (CRP-transgenic mice; end of infusion, wild-type littermates): 3.2 ng/mL; effect of daily injection of human leptin for two days on food intake and body weight (ob/ob mice [2]; after PBS pre-injection): gradual decreases in food intake and body weight; decrease in food-intake (ob/ob mice [2]; [3]): 40.2%; reduction of body weight (ob/ob mice [2]; [3]): 2.17%

Q: For “human CRP: human C-reactive protein, purified preparation from a commercial source”, which “effect of human CRP on physiological actions of human leptin, separate osmotic pumps” value (ob/ob mice [1]; food intake, body weight, blood glucose, serum insulin, matched serum CRP) is on record?
A: The value was “attenuate the physiological actions of human leptin”.

Q: And the “effect of co-infused human CRP on leptin-induced reduction of food intake and body weight, low dosage” value (ob/ob mice [1]; human CRP 10 μg/day with human leptin, single pump)?
A: Its value is “only partially attenuated”.

Q: And the “effect on increase of rectal temperature induced by leptin” value (ob/ob mice [1]; human CRP 40 μg/day)?
A: Its value is “completely blocked”.

Q: And the “effect of co-infused human CRP on leptin actions to restrain appetite and induce weight loss, high dosage” value (ob/ob mice [1]; human CRP 40 μg/day with human leptin, single pump)?
A: Its value is “completely block”.

Q: And the “activation of STAT3 in hypothalamic tissues on co-infusion of CRP with leptin” value (ob/ob mice [1]; ob/ob mice)?
A: The value was “inhibited”.

Q: What about the “effect of CRP alone on food intake and body weight” value (ob/ob mice [1]; ob/ob mice) of the same substance?
A: The value was “did not affect food intake or body weight”.

Q: And the “effect of CRP alone on food intake and body weight” value (ob/ob mice [1]; ob/ob mice, listed as CRP)?
A: The value was “does not influence food intake and body weight”.

Q: And the “effect of co-infused human CRP on leptin's alleviation of diabetes” value (ob/ob mice [1]; ob/ob mice, co-infusion with leptin)?
A: Its value is “reverted these effects”.

Q: What about the “effect of human CRP alone on food intake and body weight” value (CRP-transgenic mice; CRP transgenic mice, no human leptin) of the same substance?
A: Its value is “did not meaningfully affect”.

Q: What about the “average baseline serum concentration of human CRP” value (CRP-transgenic mice; mice transgenically expressing human CRP) of the same substance?
A: The value was “approximately 15 μg/ml”.

Q: What about the “effect of CRP pre-injection on satiety and weight reducing effects of human leptin, 1.2 μg” value (ob/ob mice [2]; human CRP 1.2 μg i.c.v. 24 hours before leptin) of the same substance?
A: The value was “partially blunted”.

Q: And the “effect of CRP pre-injection on first injection of human leptin” value (ob/ob mice [2]; human CRP 2.3 μg/injection)?
A: Its value is “completely blunted”.

Q: And the “effect of CRP pre-injection on second injection of human leptin” value (ob/ob mice [2]; human CRP 2.3 μg/injection)?
A: The value was “at least partially blocked”.

Q: And the “effect of CRP pre-injection on satiety and weight reducing effects of human leptin, 2.3 μg” value (ob/ob mice [2]; human CRP 2.3 μg/μl i.c.v. 24 hours before leptin)?
A: The value was “completely blocked”.

Q: And the “food consumed after CRP alone compared to PBS alone” value (ob/ob mice [2]; i.c.v., ob/ob mice)?
A: The value was “essentially the same amount of food”.

Source: patent US20070218504A1, “HUMAN LEPTIN-DERIVED POLYPEPTIDES AND USES THEREOF” (UNIVERSITY OF PITTSBURGH, priority 2006, published 2007)
